Activity calls are given as the source filed them. How the calls were made is not given here.
System: GENE-TOX genotoxicity assays, various organisms and cells
Assay: GENE-TOX mutagenicity studies
Settings: for call: Assay Type: In vivo carcinogenicity studies
[1] = Species/Cell Type: Human lymphocytes, Assay Type: Sister-chromatid exchange (SCE) in vitro, Assay Code: SCL+, Evaluation Type: Evaluation B (Post-1980)
[2] = Species/Cell Type: Human, Assay Type: Sister-chromatid exchange (SCE) in vitro, Assay Code: SC1+, Evaluation Type: Evaluation B (Post-1980)
[3] = Species/Cell Type: Nonhuman, Assay Code: CCG+L, Evaluation Type: Evaluation A (Pre-1980)
[4] = Species/Cell Type: Nonhuman, Assay Type: Sister-chromatid exchange (SCE) in vitro, Assay Code: SC2+D, Dose Response: With dose response, Evaluation Type: Evaluation B (Post-1980)
[5] = Species/Cell Type: Saccharomyces cerevisiae, Assay Type: Mitotic recombination or gene conversion, Assay Code: YEH+, Evaluation Type: Evaluation A (Pre-1980)
[6] = Species/Cell Type: Saccharomyces cerevisiae, Assay Type: Reverse gene mutation, Assay Code: YER+, Evaluation Type: Evaluation A (Pre-1980)
[7] = Species/Cell Type: Nonhuman, Assay Type: Sister-chromatid exchange (SCE) in vivo, Assay Code: SC3T, Evaluation Type: Evaluation B (Post-1980)
[8] = Species/Cell Type: Salmonella typhimurium (one or more of the five standard strains: TA98, TA100, TA1535, TA1537, and TA1538), Assay Type: Histidine reverse gene mutation, Ames assay, Assay Code: SALT, Evaluation Type: Evaluation A (Pre-1980)
[9] = Species/Cell Type: Chinese hamster ovary (CHO) cells, Assay Type: Forward gene mutation at the HPRT locus, Assay Code: CHOT, Evaluation Type: Evaluation B (Post-1980)
[10] = Species/Cell Type: Drosophila melanogaster, Assay Type: Sex-linked recessive lethal gene mutation, Assay Code: SRLT, Evaluation Type: Evaluation A (Pre-1980)
[11] = Species/Cell Type: Salmonella typhimurium (one or more of the five standard strains: TA98, TA100, TA1535, TA1537, and TA1538), Assay Type: Histidine reverse gene mutation, Ames assay, Assay Code: SAL+, Evaluation Type: Evaluation A (Pre-1980)

C1CN1c1nc(N2CC2)nc(N2CC2)n1
mutagenic call (Species/Cell Type: Allium cepa, Assay Type: Chromosome aberrations, Assay Code: ALC+, Evaluation Type: Evaluation A (Pre-1980)): active; positive | mutagenic call (Species/Cell Type: Arabidopsis species, Assay Type: Gene mutation, Assay Code: ARM-, Evaluation Type: Evaluation A (Pre-1980)): inactive; negative | mutagenic call (Species/Cell Type: Drosophila melanogaster, Assay Type: Sex-linked recessive lethal gene mutation, Assay Code: SRL+, Evaluation Type: Evaluation A (Pre-1980)): active; positive | mutagenic call (Species/Cell Type: Drosophila melanogaster, Sex: Male, Assay Type: Heritable translocation test, chromosome aberrations, Assay Code: DHT+, Evaluation Type: Evaluation A (Pre-1980)): active; positive | mutagenic call (Species/Cell Type: F1 mouse, Sex: Male, Assay Type: Sperm morphology, Assay Code: SPF+, Evaluation Type: Evaluation A (Pre-1980)): active; positive | mutagenic call [1]: active; positive | mutagenic call [2]: active; positive | mutagenic call (Species/Cell Type: Mammalian germ cells, Sex: Male, Assay Type: Chromosome aberrations in vivo, Assay Code: CY9+, Evaluation Type: Evaluation A (Pre-1980)): active; positive | mutagenic call (Species/Cell Type: Mammalian oocytes or early embryo, Assay Type: Chromosome aberrations in vivo, Assay Code: CYO+, Evaluation Type: Evaluation A (Pre-1980)): active; positive | mutagenic call (Species/Cell Type: Mammalian polychromatic erythrocytes, Assay Type: Micronucleus test, chromosome aberrations, Assay Code: MNT+, Evaluation Type: Evaluation A (Pre-1980)): active; positive | mutagenic call (Species/Cell Type: Mouse germ cells, Sex: Male, Assay Type: Unscheduled DNA synthesis (UDS) in vivo, DNA effects, Assay Code: UDT+, Evaluation Type: Evaluation A (Pre-1980)): active; positive | mutagenic call (Species/Cell Type: Mouse, Sex: Female, Assay Type: Spot test, gene mutation, Assay Code: MSTT, Evaluation Type: Evaluation A (Pre-1980)): no conclusion | mutagenic call (Species/Cell Type: Mouse, Sex: Male, Assay Type: Heritable translocation test, chromosome aberrations, Assay Code: HTT+, Evaluation Type: Evaluation A (Pre-1980)): active; positive | mutagenic call (Species/Cell Type: Mouse, Sex: Male, Assay Type: Specific locus test, gene mutation, Assay Code: SLT+, Evaluation Type: Evaluation A (Pre-1980)): active; positive | mutagenic call (Species/Cell Type: Mouse, Sex: Male, Assay Type: Sperm morphology, Assay Code: SPI+, Evaluation Type: Evaluation A (Pre-1980)): active; positive | mutagenic call (Species/Cell Type: Nonhuman bone marrow, Assay Type: Chromosome aberrations, in vivo, Assay Code: CY#+, Evaluation Type: Evaluation A (Pre-1980)): active; positive | call [3]: active; positive | mutagenic call [4]: active; positive | mutagenic call (Species/Cell Type: Nonhuman, Assay Type: Sister-chromatid exchange (SCE) in vivo, Assay Code: SC3+D, Dose Response: With dose response, Evaluation Type: Evaluation B (Post-1980)): active; positive | mutagenic call (Species/Cell Type: Rabbit, Sex: Male, Assay Type: Sperm morphology, Assay Code: SPRT, Evaluation Type: Evaluation A (Pre-1980)): no conclusion | mutagenic call (Species/Cell Type: Rodents, Sex: Male, Assay Type: Dominant lethal test, Assay Code: DLT+D, Dose Response: With dose response, Evaluation Type: Evaluation A (Pre-1980)): active; positive | mutagenic call (Species/Cell Type: Saccharomyces cerevisiae, Assay Type: Forward and reverse gene mutation, mitotic recombination and gene conversion, host-mediated assay, Assay Code: HME+, Evaluation Type: Evaluation A (Pre-1980)): active; positive | mutagenic call (Species/Cell Type: Saccharomyces cerevisiae, Assay Type: Forward gene mutation, Assay Code: YEF+, Evaluation Type: Evaluation A (Pre-1980)): active; positive | mutagenic call (Species/Cell Type: Saccharomyces cerevisiae, Assay Type: Mitotic recombination or gene conversion, Assay Code: YEC+, Evaluation Type: Evaluation A (Pre-1980)): active; positive | mutagenic call [5]: active; positive | mutagenic call [6]: active; positive | mutagenic call (Species/Cell Type: Vicia faba, Assay Type: Chromosome aberrations, Assay Code: VIC+, Evaluation Type: Evaluation A (Pre-1980)): active; positive

CO[C@@]12[C@H](COC(N)=O)C3=C(C(=O)C(C)=C(N)C3=O)N1C[C@H]1[C@@H]2N1C (stereo not given in full)
mutagenic call [4]: active; positive

COc1c2occc2cc2ccc(=O)oc12
mutagenic call (Species/Cell Type: Aspergillus nidulans, Assay Type: Aneuploidy, chromosome aberrations, Assay Code: ASN-, Evaluation Type: Evaluation A (Pre-1980)): inactive; negative | mutagenic call (Species/Cell Type: Aspergillus nidulans, Assay Type: Forward gene mutation, Assay Code: ASFT, Evaluation Type: Evaluation A (Pre-1980)): no conclusion | mutagenic call [1]: active; positive | mutagenic call (Species/Cell Type: Human lymphocytes, Assay Type: Sister-chromatid exchange (SCE) in vitro, Assay Code: SCLT, Evaluation Type: Evaluation A (Pre-1980)): no conclusion | mutagenic call [2]: active; positive | mutagenic call (Species/Cell Type: Human, Assay Type: Sister-chromatid exchange (SCE) in vitro, Assay Code: SC1T, Evaluation Type: Evaluation A (Pre-1980)): no conclusion | call (Species/Cell Type: Nonhuman, Assay Code: CCGT, Evaluation Type: Evaluation A (Pre-1980)): no conclusion | mutagenic call (Species/Cell Type: Nonhuman, Assay Type: Sister-chromatid exchange (SCE) in vitro, Assay Code: SC2T, Evaluation Type: Evaluation A (Pre-1980)): no conclusion | mutagenic call [7]: no conclusion | mutagenic call [5]: active; positive | mutagenic call [6]: active; positive | mutagenic call [8]: no conclusion

Cc1c2ccncc2c(C)c2c1[nH]c1ccc(O)cc12
mutagenic call [9]: no conclusion

CC(=O)O[C@@H]1[C@@H](O)[C@H]2O[C@@H]3C=C(C)C(=O)[C@@H](O)[C@]3(CO)[C@]1(C)[C@]21CO1
mutagenic call (Species/Cell Type: Bacillus subtilis (H17 vs M45), Assay Type: Rec-assay, spot test, DNA effects (bacterial DNA repair), Assay Code: REW-, Evaluation Type: Evaluation A (Pre-1980)): inactive; negative | mutagenic call [8]: no conclusion

ClC1=C(Cl)C2(Cl)C3C(Cl)C=CC3C1(Cl)C2(Cl)Cl (stereo not given)
mutagenic call [10]: no conclusion | call [3]: active; positive | mutagenic call (Species/Cell Type: Zea mays (corn), Assay Type: Gene mutation, Assay Code: ZEM+, Evaluation Type: Evaluation A (Pre-1980)): active; positive

CCN(CC)CCCC(C)Nc1ccnc2cc(Cl)ccc12 (stereo not given)
mutagenic call (Species/Cell Type: Escherichia coli polA (W3119 vs P3478), Assay Type: Rec-assay, DNA effects (bacterial DNA repair), Assay Code: RE1+, Evaluation Type: Evaluation A (Pre-1980)): active; positive | mutagenic call (Species/Cell Type: Mammalian cell culture, nonhuman, Assay Type: Micronucleus test in vitro, chromosome aberrations, Assay Code: MN&+, Evaluation Type: Evaluation A (Pre-1980)): active; positive

[Cl][W]([Cl])([Cl])([Cl])([Cl])[Cl]
mutagenic call (Species/Cell Type: Syrian hamster embryo (SA7/SHE) cells, Assay Type: Cell transformation, viral enhanced, Assay Code: CT7-, Evaluation Type: Evaluation A (Pre-1980)): inactive; negative

Nc1ncnc2c1ncn2[C@@H]1O[C@H](CO)[C@@H](O)[C@@H]1O
mutagenic call (Species/Cell Type: Vicia faba, Assay Type: Chromosome aberrations, Assay Code: VIC+D, Dose Response: With dose response, Evaluation Type: Evaluation A (Pre-1980)): active; positive

CC1C(C)N(N=O)C(C)C(C)N1N=O (stereo not given)
mutagenic call [8]: no conclusion

O=C1OC2(c3ccccc31)c1ccc(O)c(Br)c1Oc1c2ccc(O)c1Br
mutagenic call [8]: no conclusion

COc1cc([C@@H]2c3cc4c(cc3[C@H](O)[C@H]3COC(=O)[C@H]23)OCO4)cc(OC)c1OC
mutagenic call [9]: no conclusion

Brc1ccc(C2CO2)cc1 (stereo not given)
mutagenic call (Species/Cell Type: Escherichia coli WP2 UVRA, Assay Type: Tryptophan reverse gene mutation, Assay Code: WPU+D, Dose Response: With dose response, Evaluation Type: Evaluation A (Pre-1980)): active; positive

O=C(O)c1ccccc1
mutagenic call (Species/Cell Type: Escherichia coli WP2, Assay Type: Tryptophan reverse gene mutation, Assay Code: WP2-*, Activation: With metabolic activation, Evaluation Type: Evaluation A (Pre-1980)): inactive; negative | mutagenic call (Species/Cell Type: Escherichia coli WP2 UVRA, Assay Type: Tryptophan reverse gene mutation, Assay Code: WPU-*, Activation: With metabolic activation, Evaluation Type: Evaluation A (Pre-1980)): inactive; negative | mutagenic call [2]: active; positive | mutagenic call (Species/Cell Type: Saccharomyces cerevisiae, Assay Type: Mitotic recombination or gene conversion, Assay Code: YEH-, Evaluation Type: Evaluation A (Pre-1980)): inactive; negative | mutagenic call (Species/Cell Type: Salmonella typhimurium (one or more of the five standard strains: TA98, TA100, TA1535, TA1537, and TA1538), Assay Type: Histidine reverse gene mutation, Ames assay, Assay Code: SAL-, Evaluation Type: Evaluation A (Pre-1980)): inactive; negative

CCCCNC(=O)NS(=O)(=O)c1ccc(N)cc1
mutagenic call [7]: no conclusion

CC(F)F
mutagenic call [10]: no conclusion

CC(C)[N+](=O)[O-]
mutagenic call (Species/Cell Type: Mammalian polychromatic erythrocytes, Assay Type: Micronucleus test, chromosome aberrations, Assay Code: MNTT, Evaluation Type: Evaluation A (Pre-1980)): no conclusion | call (Species/Cell Type: Nonhuman, Assay Code: CCG+, Evaluation Type: Evaluation A (Pre-1980)): active; positive

C[C@@]1(CO)[C@H](O)CC[C@@]2(C)[C@H]1CC[C@H]1C[C@@H]3C[C@@]12CC[C@]3(O)CO
mutagenic call [1]: active; positive | mutagenic call [2]: active; positive | mutagenic call [4]: active; positive

CC1CCOS(=O)(=O)O1 (stereo not given)
mutagenic call [11]: active; positive | mutagenic call (Species/Cell Type: Salmonella typhimurium, Assay Type: Forward and reverse gene mutation, host-mediated assay, Assay Code: HMA+, Evaluation Type: Evaluation A (Pre-1980)): active; positive

O=C(O)c1ccccc1[N+](=O)[O-]
mutagenic call [11]: active; positive

Nc1ccc(-c2nc(N3CCOCC3)c3ccccc3n2)s1
mutagenic call [8]: no conclusion

— PubChem BioAssay AID1259408 (Genetic Toxicology Data Bank (GENE-TOX), 2018)
